From patent US11173146B2, “Selective activators of the intermediate conductance CA2+activated K+ channel KCa3.1 and their methods of use” (The Regents of the University of California, priority 2014, dated 2021)
Read-outs that look alike come from different tables or passages of the source.

Tests used:
[1] = target: T1, hKCa1.1 (Homo sapiens, UniProt Q12791); assay: KCa1.1 current modulation (QPatch); assay type: cell-based
T1 construct: host or cells: HEK-293

[2] = target: T2, mKV1.3 (Mus musculus, UniProt P16390); assay: KV1.3 current inhibition (L929 cells); assay type: cell-based
T2 construct: expressed in transfected cells; host or cells: L929
T2 sequence (P16390 whole entry): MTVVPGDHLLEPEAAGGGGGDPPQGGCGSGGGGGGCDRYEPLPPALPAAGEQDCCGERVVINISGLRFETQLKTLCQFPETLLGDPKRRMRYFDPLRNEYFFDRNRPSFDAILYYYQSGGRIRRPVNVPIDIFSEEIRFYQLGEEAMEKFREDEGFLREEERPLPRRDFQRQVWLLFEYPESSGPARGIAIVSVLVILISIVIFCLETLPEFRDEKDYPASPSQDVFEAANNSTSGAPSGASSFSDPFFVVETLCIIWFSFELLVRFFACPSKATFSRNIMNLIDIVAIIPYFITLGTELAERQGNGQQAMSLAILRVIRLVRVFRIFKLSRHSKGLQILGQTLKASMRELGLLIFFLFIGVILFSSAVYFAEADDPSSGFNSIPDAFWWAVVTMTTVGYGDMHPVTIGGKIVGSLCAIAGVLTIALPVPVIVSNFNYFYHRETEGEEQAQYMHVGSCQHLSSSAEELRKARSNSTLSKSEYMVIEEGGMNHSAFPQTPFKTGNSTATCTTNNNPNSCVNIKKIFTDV
From the text: (§1) Cells, Cell lines and Clones. HEK-293 cells stably expressing hKCa2.1, rKCa2.2 and hKCa3.1 were obtained from Khaled Houamed (University of Chicago, Ill.) in 2002 and have been maintained in the Wulff laboratory at the University of California since then. The cloning of hKCa2.3 (19 CAG repeats) and hKCa3.1 has been previously described (Wulff et al., 2000). The hKCa2.3 clone was later stably expressed in COS-7 cells at Aurora Biosciences Corp., San Diego, Calif. […]
(§2) Electrophysiology. […] For manual experiments COS-7, HEK-293 or L929 cells were trypsinized, plated onto poly-L-lysine coated coverslips and typically recorded from between 20 min and 4 h after plating. […] Free Ca^2+ concentrations were calculated with MaxChelator assuming a temperature of 25° C., a pH of 7.2 and an ionic strength of 160 mM. To reduce contaminating currents from native chloride channels in COS-7 cells, KCa2.3 currents were recorded with an internal pipette solution containing (in mM): 145 K^+ aspartate, 2 MgCl2, 10 HEPES, 10 EGTA and 7.4 CaCl2 (500 nM free Ca^2+), pH 7.2, 290-310 mOsm. […] KV2.1, Kv1.3, and KV3.1 currents were recorded in normal Ringer solution with a Ca^2+-free KF-based pipette solution as previously described (Schmitz et al., 2005). HERG (KV11.1) currents were recorded with a 2-step pulse from −80 mV first to 20 mV for 1 sec and then to −50 mV for 1 sec. […]

[3] = target: T3, mKV3.1 (Mus musculus, UniProt P15388); assay: KV3.1 current inhibition (L929 cells); assay type: cell-based
T3 construct: expressed in transfected cells; host or cells: L929
T3 sequence (P15388 whole entry): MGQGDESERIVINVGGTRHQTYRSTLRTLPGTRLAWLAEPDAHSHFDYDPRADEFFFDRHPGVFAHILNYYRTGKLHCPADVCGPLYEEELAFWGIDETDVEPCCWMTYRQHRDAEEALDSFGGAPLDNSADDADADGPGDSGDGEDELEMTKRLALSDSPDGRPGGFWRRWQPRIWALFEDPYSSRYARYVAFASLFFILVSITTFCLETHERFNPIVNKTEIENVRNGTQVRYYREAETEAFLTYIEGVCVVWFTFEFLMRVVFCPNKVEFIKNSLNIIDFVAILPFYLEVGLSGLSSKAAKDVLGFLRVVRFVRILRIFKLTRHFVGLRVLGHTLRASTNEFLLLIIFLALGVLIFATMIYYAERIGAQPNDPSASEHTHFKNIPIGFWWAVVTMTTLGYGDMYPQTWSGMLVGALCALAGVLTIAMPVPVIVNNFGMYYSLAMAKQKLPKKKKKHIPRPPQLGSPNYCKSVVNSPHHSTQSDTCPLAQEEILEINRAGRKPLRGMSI
From the text: as §1, §2

[4] = target: T4, KV11.1 (hERG) (Homo sapiens, UniProt Q12809); assay: KV11.1 (hERG) current inhibition (HEK-293); assay type: cell-based
T4 construct: host or cells: HEK-293
From the text: as §1, §2

[5] = target: T5, hNaV1.4 (Homo sapiens, UniProt P35499); assay: NaV1.4 current inhibition (HEK-293); assay type: cell-based; conditions: HEK293
T5 construct: host or cells: HEK-293

[6] = target: T6, hNaV1.5 (Homo sapiens, UniProt Q14524); assay: NaV1.5 current inhibition (HEK-293); assay type: cell-based; conditions: HEK293
T6 construct: host or cells: HEK-293
T6 sequence (Q14524 whole entry): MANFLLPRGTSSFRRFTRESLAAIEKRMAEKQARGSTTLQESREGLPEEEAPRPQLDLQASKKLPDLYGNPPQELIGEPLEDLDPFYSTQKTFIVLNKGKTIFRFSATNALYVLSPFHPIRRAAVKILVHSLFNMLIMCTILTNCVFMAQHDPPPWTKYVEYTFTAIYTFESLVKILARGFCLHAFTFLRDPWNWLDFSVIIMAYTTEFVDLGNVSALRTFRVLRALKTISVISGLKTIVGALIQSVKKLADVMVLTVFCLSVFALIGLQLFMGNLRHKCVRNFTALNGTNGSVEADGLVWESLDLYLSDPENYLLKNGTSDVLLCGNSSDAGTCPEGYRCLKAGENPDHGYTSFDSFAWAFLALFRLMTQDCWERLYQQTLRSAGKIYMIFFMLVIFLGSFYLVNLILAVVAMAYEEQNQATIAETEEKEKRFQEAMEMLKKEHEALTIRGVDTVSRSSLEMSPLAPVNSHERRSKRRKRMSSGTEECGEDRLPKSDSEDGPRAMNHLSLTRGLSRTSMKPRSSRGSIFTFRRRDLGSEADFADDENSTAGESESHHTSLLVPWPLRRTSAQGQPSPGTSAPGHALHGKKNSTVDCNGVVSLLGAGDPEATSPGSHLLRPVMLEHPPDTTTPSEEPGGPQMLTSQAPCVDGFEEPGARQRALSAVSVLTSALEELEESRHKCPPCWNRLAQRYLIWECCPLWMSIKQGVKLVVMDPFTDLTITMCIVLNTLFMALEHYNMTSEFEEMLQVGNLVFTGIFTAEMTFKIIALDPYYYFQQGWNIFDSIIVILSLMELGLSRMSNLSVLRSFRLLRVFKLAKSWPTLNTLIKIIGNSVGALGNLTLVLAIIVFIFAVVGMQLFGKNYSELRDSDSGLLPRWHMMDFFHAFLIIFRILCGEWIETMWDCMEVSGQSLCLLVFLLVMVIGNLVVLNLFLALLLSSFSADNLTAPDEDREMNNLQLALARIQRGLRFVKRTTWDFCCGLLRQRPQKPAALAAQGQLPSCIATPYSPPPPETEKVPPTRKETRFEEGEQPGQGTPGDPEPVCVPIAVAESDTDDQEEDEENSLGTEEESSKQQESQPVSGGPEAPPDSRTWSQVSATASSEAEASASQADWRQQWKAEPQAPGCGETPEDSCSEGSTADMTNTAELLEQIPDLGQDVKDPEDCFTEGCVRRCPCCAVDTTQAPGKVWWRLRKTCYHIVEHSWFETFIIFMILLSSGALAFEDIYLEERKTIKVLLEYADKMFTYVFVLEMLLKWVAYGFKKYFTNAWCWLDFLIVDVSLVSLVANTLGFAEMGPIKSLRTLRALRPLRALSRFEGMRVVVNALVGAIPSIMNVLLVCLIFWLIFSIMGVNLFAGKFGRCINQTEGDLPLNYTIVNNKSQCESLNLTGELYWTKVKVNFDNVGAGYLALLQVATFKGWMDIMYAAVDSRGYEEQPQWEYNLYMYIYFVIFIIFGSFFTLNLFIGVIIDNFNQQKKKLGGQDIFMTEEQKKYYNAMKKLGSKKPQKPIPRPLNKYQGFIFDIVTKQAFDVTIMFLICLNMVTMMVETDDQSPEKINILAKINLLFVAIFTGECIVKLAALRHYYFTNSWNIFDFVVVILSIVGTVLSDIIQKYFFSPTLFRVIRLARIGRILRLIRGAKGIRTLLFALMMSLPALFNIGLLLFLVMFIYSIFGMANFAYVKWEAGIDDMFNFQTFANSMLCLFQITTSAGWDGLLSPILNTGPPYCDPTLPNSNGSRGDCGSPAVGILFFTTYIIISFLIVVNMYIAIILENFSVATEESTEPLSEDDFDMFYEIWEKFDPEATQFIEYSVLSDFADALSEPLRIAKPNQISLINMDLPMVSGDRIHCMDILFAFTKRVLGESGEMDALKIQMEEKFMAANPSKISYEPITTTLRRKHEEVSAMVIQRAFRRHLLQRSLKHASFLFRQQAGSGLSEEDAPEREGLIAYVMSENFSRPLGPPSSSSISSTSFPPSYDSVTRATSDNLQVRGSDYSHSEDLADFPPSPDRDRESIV

[7] = Pharmacokinetics in mice (UPLC/MS); assay type: in vivo, mouse; set-up: distribution from blood into tissue / oral availability: dose or concentration left out as unconfirmed; conditions: for half-life: iv, 10 mg/kg i.v.
From the text: Pharmacokinetics. Twelve week-old male C57BI/6Jmice were purchased from Charles River Laboratories (Wilmington, Mass.) and housed in microisolator cages with rodent chow and autoclaved water ad libitum. All experiments were in accordance with National Institutes of Health guidelines and approved by the University of California, Davis, Institutional Animal Care and Use Committee. […] At various time points after the injection blood was collected into EDTA blood sample collection tubes either from the saphenous vein or by cardiac puncture under deep isoflurane anesthesia. Following the cardiac puncture mice were sacrificed by cutting the heart and then the brain was removed. Individual mice were typically used for 3 times points (2 blood collections from the saphenous vein plus the terminal blood collection). Plasma was separated by centrifugation and plasma and brain samples were stored at −80 °C pending analysis. Brain samples were homogenized in 1 ml of H2O with a Brinkman Kinematica PT 1600E homogenizer and the protein precipitated with 1 ml of acetonitrile. The samples were then centrifuged at 3000 rpm and supernatants concentrated to 1 ml. Plasma and homogenized brain samples were purified using C18 solid phase extraction cartridges (ThermoFisher Scientific, Waltham, Mass., USA) preconditioned with acetonitrile followed by 1 ml of water. The loaded column was washed with 2 ml of water. […] Eluted fractions were dried under nitrogen and reconstituted in acetonitrile. LC/MS analysis was performed with a Waters Acquity UPLC (Waters, New York, N.Y.) equipped with a Acquity UPLC BEH 1.7 μm RP-18 column (Waters, New York, N.Y.) interfaced to a TSQ Quantum Access Max mass spectrometer (MS) (ThermoFisher Scientific, Waltham, Mass., USA). The isocratic mobile phase consisted of 80% acetonitrile and 20% water, both containing 0.1% formic acid with a flow rate of 0.25 ml/min.

[8] = test system: porcine coronary arteries; assay: Isometric myography on porcine coronary arteries, bradykinin-induced EDH-type relaxation; conditions: compound 1 μM; for BK (1 μM)-induced relaxation potentiated to: U46619-precontracted, L-NNA and indomethacin
From the text: Isometric Myography on Porcine Coronary Arteries (PCA). PCA were carefully dissected from hearts kindly provided by the local abattoir (Mercazaragoza, Zaragoza, Spain), cleaned of fat and connective tissue, and cut into 3-4 mm rings. Rings were mounted on hooks connected to an isometric force transducer (Pioden UF1, Graham Bell House, Canterbury, UK) and were pre-stretched to an initial tension of 1 g. […] Changes in tension were registered using a Mac Lab System/8e program (AD Instruments Inc., Milford, Mass.). The buffer contained the NO-synthase blocker, Nω-nitro-L-arginine (L-NNA, 300 μM), and the cyclooxygenase blocker indomethacin (10 μM) in order to measure EDH-type relaxation. […] After washout, rings were contracted with a high KCl buffer (60 mM) to determine maximal contraction. […] UCL1684 and U46619 were purchased from Tocris (Wiesbaden-Nordenstadt, Germany). Data analysis: EDH-type relaxations were determined as % change of U46619 contraction and are shown relative to the totally relaxed state (w/o U46619).

T1 sequence (Q12791 whole entry): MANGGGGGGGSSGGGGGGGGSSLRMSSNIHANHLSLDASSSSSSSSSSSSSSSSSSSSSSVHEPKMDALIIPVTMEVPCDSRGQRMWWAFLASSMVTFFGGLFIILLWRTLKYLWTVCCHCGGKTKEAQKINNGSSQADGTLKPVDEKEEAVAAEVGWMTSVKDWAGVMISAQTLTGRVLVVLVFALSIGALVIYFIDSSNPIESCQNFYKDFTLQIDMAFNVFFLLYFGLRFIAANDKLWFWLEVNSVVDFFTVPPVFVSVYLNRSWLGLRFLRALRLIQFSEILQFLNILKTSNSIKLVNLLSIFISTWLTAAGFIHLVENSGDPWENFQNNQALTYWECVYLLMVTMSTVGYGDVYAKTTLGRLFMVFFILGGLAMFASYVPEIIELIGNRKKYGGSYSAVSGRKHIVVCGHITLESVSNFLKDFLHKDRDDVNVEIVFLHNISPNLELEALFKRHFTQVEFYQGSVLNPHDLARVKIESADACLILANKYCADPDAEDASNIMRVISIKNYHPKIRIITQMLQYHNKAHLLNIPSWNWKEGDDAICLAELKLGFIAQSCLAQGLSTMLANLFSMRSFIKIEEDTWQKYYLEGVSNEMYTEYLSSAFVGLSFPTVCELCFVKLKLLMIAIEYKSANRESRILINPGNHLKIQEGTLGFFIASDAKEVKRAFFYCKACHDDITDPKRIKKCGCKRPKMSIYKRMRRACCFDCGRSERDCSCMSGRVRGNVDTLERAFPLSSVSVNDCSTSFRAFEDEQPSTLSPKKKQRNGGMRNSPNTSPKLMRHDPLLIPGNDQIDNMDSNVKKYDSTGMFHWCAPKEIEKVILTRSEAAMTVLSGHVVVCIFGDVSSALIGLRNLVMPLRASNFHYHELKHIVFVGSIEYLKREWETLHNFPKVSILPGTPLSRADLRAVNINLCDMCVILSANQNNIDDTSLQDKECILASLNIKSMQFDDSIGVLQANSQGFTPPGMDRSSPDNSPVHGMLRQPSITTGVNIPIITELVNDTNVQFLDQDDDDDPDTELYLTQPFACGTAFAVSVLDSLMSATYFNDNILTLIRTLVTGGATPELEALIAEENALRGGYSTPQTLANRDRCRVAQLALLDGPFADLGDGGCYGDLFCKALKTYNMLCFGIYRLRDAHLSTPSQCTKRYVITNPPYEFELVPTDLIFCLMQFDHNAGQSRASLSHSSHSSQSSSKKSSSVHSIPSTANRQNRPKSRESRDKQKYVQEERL

Cc1cc2sc(N)nc2c2ccccc12 [SKA-111, 5-methylnaphtho[1,2-d]thiazol-2-amine]
KCa1.1 % of current ([1]; at 25 μM): 120% of current at 25 μM (3) | inhibition at 25 µM ([2]; at 25 μM): 28.5 ± 2.3% | inhibition at 25 µM ([3]; at 25 μM): 32.9 ± 1.3% | KV11.1 (hERG) % current inhibition ([4]; at 25 μM): 10.1 ± 7.7% | inhibition at 25 µM ([5]; at 25 μM): 33.4 ± 10.5% | inhibition at 25 µM ([6]; at 25 μM): 39.9 ± 11.1% | distribution from blood into tissue ([7]; […] mg/kg i.v., mice): ~2 min | total brain concentrations probably achieved ([7]; i.p. 100 mg/kg, for hours): 10 to 30 µM | half-life ([7]; male, C57Bl/6J, mouse, plasma, 10 mg/kg, mice, read-out: elimination half-life (converted)): 4.7 ± 0.6 h | bradykinin-induced EDH-type relaxation [8]: increased | BK (1 μM)-induced relaxation potentiated to [8]: ≈ 200%

Cc1cc2nc(N)oc2c2ccccc12 [SKA-121, 5-Methylnaphtho[2,1-d]oxazol-2-amine]
KCa1.1 % of current ([1]; at 50 μM): 115% of current at 50 μM (3) | inhibition at 50 µM ([2]; at 50 μM): 27.5 ± 7.2% | inhibition at 50 µM ([3]; at 50 μM): 46.3 ± 16.5% | KV11.1 (hERG) % current inhibition ([4]; at 50 μM): 16.7 ± 9.7% | inhibition at 50 µM ([5]; at 50 μM): 25.7 ± 1.3% | inhibition at 50 µM ([6]; at 50 μM): 32.1 ± 11.1% | oral availability ([7]; […] mg/kg oral vs i.v., mice): roughly 25% | concentration at 1 h ([7]; male, C57Bl/6J, mouse, plasma, 10 mg/kg, […] mg/kg oral, mice, read-out: plasma level at 1 h after oral administration): 1100 ± 100 nM | concentration at 8 h ([7]; male, C57Bl/6J, mouse, plasma, 10 mg/kg, […] mg/kg oral, mice, read-out: plasma level at 8 h after oral administration): 27 ± 5 nM | concentration at 5 min ([7]; male, C57Bl/6J, mouse, plasma, intravenous, 10 mg/kg, […] mg/kg i.v., mice, read-out: total plasma concentration at 5 min): 21300 ± 2400 nM | concentration at 1 h ([7]; male, C57Bl/6J, mouse, plasma, intravenous, 10 mg/kg, […] mg/kg i.v., mice, read-out: total plasma concentration at 1 h): 483 ± 231 nM | concentration at 4 h ([7]; male, C57Bl/6J, mouse, plasma, intravenous, 10 mg/kg, […] mg/kg i.v., mice, read-out: total plasma concentration at 4 h): 53 ± 44 nM | half-life ([7]; male, C57Bl/6J, mouse, plasma, 10 mg/kg, mice, read-out: half-life): ~0.333 h | Kp ([7]; male, C57Bl/6J, mouse, mice, averaged paired brain and plasma samples, read-out: brain/plasma ratio): 3.3 ± 2.9 | bradykinin-induced EDH-type relaxation [8]: increased | BK (1 μM)-induced relaxation potentiated to [8]: ≈ 300%
